Laboratory results taken from patent US20060173066A1, “Remedy for diabetes” (Kyowa Hakko Kogyo Co., Ltd., priority 2003, published 2006).

Assays:
[1] = test system: KK-Ay/Ta Jcl mice of a type 2 diabetic model; test: Example 2: non-fasting blood-sugar level in mice fed CE-2 feed with 1% by weight of test substance; format: in vivo; details: for antidiabetic action (conclusion from Table 3): 10 days; for Blood-Sugar Level, 10th Day of the Test / Blood-Sugar Level, Initial Day of the Test: non-fasting, tail vein blood, mean ± standard error, n=5; for Blood-Sugar Level, Initial Day of the Test: initial day (baseline)
From the text: (§1) KK-Ay/Ta Jcl mice (Clea Japan, Inc.; male;,six weeks age) (15 mice) of a type 2 diabetic model were divided into three groups each comprising five mice and named group 1 to group 3.
(§2) The mice of the groups 1 to 3 were made free to take feed and water. A commercially available feed CE-2 (manufactured by Clea Japan, Inc.) was ingested to the mice of group 1. CE-2 to which 1% by weight of trans-4-hydroxy-L-proline ethyl ester (manufactured by Sanyo Chemical Laboratory Co., Ltd.; hereinafter, abbreviated as hydroxyproline ethyl ester) was added was ingested to the mice of group 2. CE-2 to which 1% by weight of trans-N,O-diacetyl-4-hydroxy-L-proline oleyl ester (manufactured by Nissei Kagaku; hereinafter, abbreviated as diacetylhydroxyproline oleyl ester) was added was ingested to the mice of group 3.
(§3) On the initial day of the test and on the 10th day thereafter, blood was collected from tail vein and blood-sugar level upon non-fasting was measured by a Medisafe Reader GR-101. The mice were fasted for 18 hours during the 10th day to the 11th day after the start of the test and whole blood was collected from descending vena cava to prepare serum. The serum-insulin level was measured by a Levi Insulin Kit Mouse-T. The value was shown by mean value±standard error (n=5) and statistic ratio of risk (p value) was determined by a t-test. With regard to the ingested amounts during the test periods, there was no significant difference among the groups 1 to 3.

[2] = test system: KK-Ay/Ta Jcl mice of a type 2 diabetic model; test: Example 2: serum-insulin level after 18 hours fasting in mice fed CE-2 feed with 1% by weight of test substance; format: in vivo; details: for Serum-Insulin Level: 11th day after 18 hours fasting, mean ± standard error, n=5
From the text: as §1, §2, §3

[3] = test system: KK-Ay/Ta Jcl mice of a type 2 diabetic model; test: Example 3: blood-sugar level after oral glucose load in fasted mice; format: in vivo; details: 1 g/kg B.W. oral
Procedure: KK-Ay/Ta Jcl mice (Clea Japan, Inc.; male; six weeks age) (16 mice) of a type 2 diabetic model were divided into 2 groups each comprising 8 mice and named group 1 and group 2.
After fasting for 18 hours, a physiological saline solution was orally administered to the mice of the group 1 while, to the mice of the group 2, 1 g/kg body weight (hereinafter, referred to as “B.W.”) of a 20% (w/v) aqueous solution of the N-acetylhydroxyproline (dissolved in a physiological saline solution) was orally administered. After 1 hour, 2 g/kg B.W. of a 40% (w/v) aqueous solution of glucose was orally administered to the mice of the groups 1 and 2 to load with sugar. Blood was collected from tail vein 60 minutes before (−60 minutes) administration of the aqueous glucose solution, upon the administration (0 minute) and 30 and 120 minutes after the administration and blood-sugar levels were measured by a Medisafe Reader GR-101. The value was shown by mean value±standard error (n=8) and statistic ratio of risk (p value) was determined by a t-test.

[4] = test system: KK-Ay/Ta Jcl mice of a type 2 diabetic model; test: Example 1: non-fasting blood-sugar level in mice fed CE-2 feed with 1% by weight of test substance; format: in vivo
From the text: (§4) KK-Ay/Ta Jcl mice (Clea Japan, Inc.; male; six weeks age) (15 mice) of a type 2 diabetic model were divided into three groups each comprising five mice and named group 1 to group 3.
(§5) The mice of the groups 1 to 3 were made free to take feed and water. A commercially available feed CE-2 (manufactured by Clea Japan, Inc.) was ingested to the mice of group 1. CE-2 to which 1% by weight of trans-4-hydroxy-L-proline (manufactured by Kyowa Hakko Kogyo; hereinafter, abbreviated as hydroxyproline) was added was ingested to the mice of group 2. CE-2 to which 1% by weight of trans-N-acetyl-4-hydroxy-L-proline (manufactured by Kyowa Hakko Kogyo; hereinafter, abbreviated as N-acetylhydroxyproline) was added was ingested to the mice of group 3.
as §3, with “17th” for “10th”, “GR-101 (manufactured by Thermo Co.).” for “GR-101.”, “18th” for “11th”, “Mouse-T (manufactured by Shibayagi).” for “Mouse-T.”

[5] = test system: KK-Ay/Ta Jcl mice of a type 2 diabetic model; test: Example 1: serum-insulin level after 18 hours fasting in mice fed CE-2 feed with 1% by weight of test substance; format: in vivo
From the text: as §4, §5
as §3, with “17th” for “10th”, “GR-101 (manufactured by Thermo Co.).” for “GR-101.”, “18th” for “11th”, “Mouse-T (manufactured by Shibayagi).” for “Mouse-T.”

C2C12 cells = test: Example 6: consumption of glucose of differentiated C2C12 cells (glucose concentration in supernatant); format: cell-based, mouse; details: for action on insulin effect on muscle (conclusion from Table 8): 100 μg/ml with insulin 0.1 μg/ml; for insulin concentration necessary to achieve the same result if insulin is used solely: relative to 0.1 μg/ml insulin used with 100 μg/ml test substance (1 μg/ml); for Glucose (concentration in supernatant after incubation): 3 days incubation, mean ± standard deviation, n=3
Procedure: Each 1.2×10^5 C2C12 cells (cell strain derived from striated muscles of mouse; Dainippon Pharmaceutical Co., Ltd.) was inoculated on a 12-well plate and incubated at 37° C. for 3 days in a CO2 incubator (5% CO2/95% air) with a DMEM medium (manufactured by Invitrogen) to which 10% fetal bovine serum (manufactured by Invitrogen) was added. When the cells became confluent, the medium was exchanged to a DMEM medium to which 2% horse serum (manufactured by Invitrogen) was added and incubation was further conducted for 4 days to differentiate to myotubes. The medium was exchanged once again with a DMEM medium to which 2% horse serum was added and further incubated for 3 days after addition of bovine insulin (manufactured by Invitrogen) so as to make its final concentration 1 μg/ml or 0.1 μg/ml, a mixture of bovine insulin and trans-4-hydroxy-L-proline methyl ester (manufactured by Kokusan Chemical Co., Ltd.; hereinafter, referred to as hydroxyproline methyl ester) so as to make their final concentrations 0.1 μg/ml and 100 μg/ml, respectively or a mixture of bovine insulin and hydroxyproline ethyl ester so as to make their final concentrations 0.1 μg/ml and 100 μg/ml, respectively. Each of the supernatant liquids after the incubation was recovered and glucose concentration was measured by a Glucose CII Test Wako (manufactured by Wako Pure Chemical Industries, Ltd.) whereby consumption of glucose of the differentiated C2C12 cells was investigated. The values are shown by mean value±standard deviation (n=3, mg/l) and statistic ratio of risk (p value) was determined by a t-test.

[6] = co-presence of 0.1 μg/ml of insulin and 100 μg/ml of test substance, vs insulin 0.1 μg/ml
[7] = test substance 100 μg/ml together with insulin 0.1 μg/ml

Compound	antidiabetic action (conclusion from Table 3) [1]	Blood-Sugar Level, 10th Day of the Test [1] [mg/dL]	Blood-Sugar Level, Initial Day of the Test [1] [mg/dL]	antidiabetic action by improving insulin resistance (conclusion from Tables 3 and 4) [2]	Serum-Insulin Level [2] [ng/mL]	action on insulin effect on muscle (conclusion from Table 8) (C2C12 cells)	consumption of glucose of C2C12 cells (C2C12 cells; [6])	insulin concentration necessary to achieve the same result if insulin is used solely (C2C12 cells)	Glucose (concentration in supernatant after incubation) (C2C12 cells; [7]) [mg/L]	other results
CCCCCCCC/C=C\CCCCCCCCOC(=O)[C@@H]1C[C@@H](OC(C)=O)CN1C(C)=O (relative stereo) [diacetylhydroxyproline oleyl ester, trans-N,O-diacetyl-4-hydroxy-L-proline oleyl ester]	antidiabetic action	215.2 ± 20.3	241.0 ± 11.0	show an antidiabetic action by improving the insulin resistance	0.64 ± 0.12					
CC(=O)N1C[C@H](O)C[C@H]1C(=O)O [N-acetylhydroxyproline, trans-N-acetyl-4-hydroxy-L-proline]										antidiabetic action (conclusion from Table 5) ([3]; glucose load): antidiabetic action; Blood-Sugar Level, 30 min ([3]; 30 minutes after glucose 2 g/kg, mean ± standard error, n=8): 407.1 ± 17.1 mg/dL; Blood-Sugar Level, −60 min ([3]; 60 minutes before glucose 2 g/kg (baseline, at dosing), mean ± standard error, n=8): 159.4 ± 5.6 mg/dL; Blood-Sugar Level, 120 min ([3]; 120 minutes after glucose 2 g/kg, mean ± standard error, n=8): 210.4 ± 14.4 mg/dL; Blood-Sugar Level, 0 min ([3]; upon glucose administration 2 g/kg, mean ± standard error, n=8): 179.9 ± 11.6 mg/dL; antidiabetic action (conclusion from Table 1) ([4]; 17 days): antidiabetic action; Blood-Sugar Level, 17th Day of the Test ([4]; non-fasting, tail vein blood, 17th day, mean ± standard error, n=5): 226.2 ± 12.9 mg/dL; Blood-Sugar Level, Initial Day of the Test ([4]; non-fasting, tail vein blood, initial day (baseline), mean ± standard error, n=5): 241.0 ± 15.5 mg/dL; antidiabetic action by improving insulin resistance (conclusion from Tables 1 and 2) [5]: show an antidiabetic action by improving the insulin resistance; Serum-Insulin Level ([5]; 18th day after 18 hours fasting, mean ± standard error, n=5): 0.69 ± 0.06 ng/mL
CCOC(=O)[C@@H]1C[C@@H](O)CN1 [hydroxyproline ethyl ester, trans-4-hydroxy-L-proline ethyl ester]	antidiabetic action	217.2 ± 11.3	253.0 ± 9.5	show an antidiabetic action by improving the insulin resistance	0.52 ± 0.10	potentiate the action of insulin to the muscle	significantly increased	ten-fold	984 ± 29	
COC(=O)[C@@H]1C[C@@H](O)CN1 [hydroxyproline methyl ester, trans-4-hydroxy-L-proline methyl ester]						potentiate the action of insulin to the muscle	significantly increased	ten-fold	926 ± 47	
Insulin: bovine insulin (manufactured by Invitrogen) [reference compound]										consumption of glucose of C2C12 cells (C2C12 cells; addition of 0.1 μg/ml of insulin, vs nothing added): significantly promoted; Glucose (concentration in supernatant after incubation) (C2C12 cells; insulin 0.1 μg/ml alone): 1260 ± 15 *^1 mg/; Glucose (concentration in supernatant after incubation) (C2C12 cells; insulin 1 μg/ml alone): 942 ± 34 mg/L
